Test results as given in patent publication US20150105252A1, “SUBSTITUTED PYRAZOLES AS HERBICIDES” (E I DU PONT DE NEMOURS AND COMPANY, priority 2013, published 2015).

Legend:
barnyardgrass [1] = assay: Test A preemergence; assay type: in vivo, Echinochloa crus-galli; settings: preemergence
Outline: (§1)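 Greenhouse test in loam soil/sand blend; compounds formulated in non-phytotoxic solvent with surfactant, applied as preemergence directed soil spray or postemergence to plants 2–10 cm tall at one- to two-leaf stage. Injury rated visually versus untreated controls after approximately 10 days on a 0 (no effect) to 100 (complete control) scale.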

foxtail, giant = assay: Test A preemergence; assay type: in vivo, Setaria faberii; settings: preemergence
Outline: as §1

pigweed = assay: Test A preemergence; assay type: in vivo, Amaranthus retroflexus; settings: preemergence
Outline: as §1

velvetleaf = assay: Test A preemergence; assay type: in vivo, Abutilon theophrasti; settings: preemergence
Outline: as §1

corn [2] = assay: Test A preemergence; assay type: in vivo, Zea mays; settings: preemergence
Outline: as §1

wheat = assay: Test A postemergence; assay type: in vivo, Triticum aestivum; settings: Postemergence
Outline: as §1

sedge, umbrella = assay: Test B flood; assay type: in vivo, Cyperus difformis; settings: 250 g ai/ha, visual rating on 0 to 100 scale (0 no effect, 100 complete control), 13 to 15 days
Outline: (§2)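 Each compound is applied to the floodwater of pots holding 2-leaf seedlings, water standing 3 cm over the soil throughout. Plants stay in a greenhouse 13 to 15 days before visual scoring against controls from 0 (no effect) to 100 (complete control).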

ducksalad = assay: Test B flood; assay type: in vivo, Heteranthera limosa; settings: 250 g ai/ha, visual rating on 0 to 100 scale (0 no effect, 100 complete control), 13 to 15 days
Outline: as §2

galium [3] = assay: Test C preemergence; assay type: in vivo, Galium aparine; settings: preemergence
Outline: (§3)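 In this greenhouse assay, seeded soil (loam plus sand) or emerged seedlings in peat-vermiculite medium were treated with formulated compound. Roughly two weeks later (13–15 days), each species was scored visually relative to controls, from 0 for no effect to 100 for complete control.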

corn [4] = assay: Test C preemergence; assay type: in vivo, Zea mays; settings: preemergence
Outline: as §3

morningglory = assay: Test C preemergence; assay type: in vivo, Ipomoea coccinea; settings: preemergence
Outline: as §3

barnyardgrass [5] = assay: Test C preemergence; assay type: in vivo, Echinochloa crus-galli; settings: preemergence
Outline: as §3

blackgrass = assay: Test C postemergence; assay type: in vivo, Alopecurus myosuroides
Outline: as §3

galium [6] = assay: Test C postemergence; assay type: in vivo, Galium aparine
Outline: as §3

oilseed rape = assay: Test C postemergence; assay type: in vivo, Brassica napus; settings: postemergence
Outline: as §3

[7] = 125 g ai/ha, visual injury approx. 10 days after treatment
[8] = 500 g ai/ha, visual injury after approx. 10 days, 0 to 100 scale (0 no effect, 100 complete control)
[9] = 31 g ai/ha, visual rating, scale 0 to 100 (0 no effect, 100 complete control), 13 to 15 days
[10] = 62 g ai/ha, scale 0 to 100 (0 no effect, 100 complete control), 13 to 15 days
[11] = 125 g ai/ha, 13 to 15 days, scale 0 to 100, 0 = no effect, 100 = complete control
[12] = 250 g ai/ha, scale 0 to 100, 0 is no effect, 100 is complete control
[13] = Postemergence, 31 g ai/ha, visually evaluated after 13 to 15 days
[14] = postemergence, 62 g ai/ha, scale 0 to 100
[15] = postemergence, 250 g ai/ha, scale 0 to 100 (0 no effect, 100 complete control)
[16] = postemergence, 125 g ai/ha, scale 0 to 100, 0 no effect, 100 complete control

CCCc1cc(C(=O)NC2CC2)nn1Cc1cc(C(F)(F)F)nn1C [Compound 202]
Barnyardgrass plant response rating (0 to 100 scale, 0 is no effect, 100 is complete control) (barnyardgrass [1]; [7]): 90 | Barnyardgrass plant response rating (barnyardgrass [1]; [8]): 100 | Foxtail, Giant plant response rating (0 to 100 scale) (foxtail, giant; [7]): 100 | Foxtail, Giant plant response rating (foxtail, giant; [8]): 100 | Pigweed plant response rating (0 to 100 scale) (pigweed; [7]): 100 | Pigweed plant response rating (pigweed; [8]): 100 | Velvetleaf plant response rating (0 to 100 scale) (velvetleaf; [7]): 30 | Velvetleaf plant response rating (velvetleaf; [8]): 100 | Corn plant response rating (0 to 100 scale) (corn [2]; [7]): 10 | Corn plant response rating (corn [2]; [8]): 40 | Wheat plant response rating (wheat; 125 g ai/ha, 0 to 100 scale, 0 no effect, 100 complete control): 60 | Wheat plant response rating (wheat; 500 g ai/ha, 0 to 100 scale (0 no effect, 100 complete control)): 80 | Plant response rating, Sedge, Umbrella (sedge, umbrella): 80 | Plant response rating, Ducksalad (ducksalad): 95 | Galium plant response rating (galium [3]; [9]): 98 | Galium plant response rating (galium [3]; [10]): 100 | Plant response rating, Galium (galium [3]; [11]): 100 | Galium plant response rating (galium [3]; [12]): 100 | Corn plant response rating (corn [4]; [9]): 5 | Corn plant response rating (corn [4]; [10]): 35 | Plant response rating, Corn (corn [4]; [11]): 60 | Corn plant response rating (corn [4]; [12]): 95 | Morningglory plant response rating (morningglory; [9]): 90 | Morningglory plant response rating (morningglory; [10]): 100 | Plant response rating, Morningglory (morningglory; [11]): 100 | Morningglory plant response rating (morningglory; [12]): 100 | Barnyardgrass plant response rating (barnyardgrass [5]; [9]): 95 | Barnyardgrass plant response rating (barnyardgrass [5]; [10]): 100 | Plant response rating, Barnyardgrass (barnyardgrass [5]; [11]): 100 | Barnyardgrass plant response rating (barnyardgrass [5]; [12]): 100 | Plant response rating (scale of 0 to 100 where 0 is no effect and 100 is complete control), Blackgrass (blackgrass; [13]): 5 | Blackgrass plant response rating (blackgrass; [14]): 10 | Plant response rating, Blackgrass (blackgrass; [15]): 30 | Plant response rating, Blackgrass (blackgrass; [16]): 20 | Plant response rating (scale of 0 to 100 where 0 is no effect and 100 is complete control), Galium (galium [6]; [13]): 65 | Galium plant response rating (galium [6]; [14]): 85 | Plant response rating, Galium (galium [6]; [15]): 95 | Plant response rating, Galium (galium [6]; [16]): 90 | Oilseed Rape plant response rating (oilseed rape; 62 g ai/ha, scale 0 to 100): 30 | Plant response rating, Oilseed Rape (oilseed rape; 250 g ai/ha, scale 0 to 100 (0 no effect, 100 complete control)): 80 | Plant response rating, Oilseed Rape (oilseed rape; 125 g ai/ha, scale 0 to 100, 0 no effect, 100 complete control): 65
